Laboratory results as given in patent US8163509B2, “Biological markers predictive of anti-cancer response to insulin-like growth factor-1 receptor kinase inhibitors” (The Regents of the University of Colorado, A Body Corporate, priority 2008, dated 2012).
Where two headings read alike, the source gives them in different places.

Key:
Experiment in all cases: SRB proliferation assay, 72 h
Format in all cases: cell-based
LoVo CRC cell line = conditions: Homo sapiens
Protocol: (§1) FIG. 17: Results of cell proliferation assay on the panel of 27 CRC cell lines. Cell proliferation was evaluated by SRB following exposure to OSI-906 for 72 hours. Cells were plated at an optimized density in 96-well plates, incubated overnight at 37° C., and then exposed to a serial dilution of OSI-906. After 72 hours incubation, cells were fixed with trichloroacetic acid and an SRB was performed as described in materials and methods.
(§2) Cell Lines and Culture. […] human colon cancer cell lines, were obtained from American Type Culture Collection (Manassas, Va.). Cells were grown in RPMI medium supplemented with 10% fetal bovine serum, 1% non-essential amino acids, 1% penicillin/streptomycin and were maintained at 37° C. in an incubator under an atmosphere containing 5% CO2. The cells were routinely screened for the presence of mycoplasma (MycoAlert, Cambrex Bio Science, Baltimore, Md.) and were exposed to PQIP when they reached approximately 70% confluence.
(§3) The CRC cell lines were treated with a range of concentrations of PQIP (from 0.05-5 μM) for 72 hours.
(§4) Cell Lines and Culture: Twenty-seven human colon cancer cell lines, were obtained from American Type Culture Collection (Manassas, Va.). The GEO cells were a generous gift from Dr. Fortunato Ciardiello (Cattedra di Oncologia Medica, Dipartimento Medico-Chirurgico di Internistica Clinica e Sperimentale “F Magrassi e A Lanzara,” Seconda Università degli Studi di Napoli, Naples). All cells except GEO were grown in RPMI medium supplemented with 10% fetal bovine serum, 1% non-essential amino acids, 1% penicillin/streptomycin and were maintained at 37° C. in an incubator under an atmosphere containing 5% CO2. GEO cells were grown in DMEM/F12 supplemented with 10% fetal bovine serum, 1% non-essential amino acids, 1% penicillin/streptomycin. The cells were routinely screened for the presence of mycoplasma (MycoAlert, Cambrex Bio Science, Baltimore, Md.) and were exposed to OSI-906 when they reached approximately 70% confluence. OSI-906 was provided by OSI Pharmaceuticals, (Boulder, Colo.) and prepared as a 10 mM stock solution in DMSO.
(§5) Assessment of responsiveness of a panel of CRC cell lines to OSI-906. In order to assess CRC cell lines with differential sensitivity to OSI-906, a panel of 27 CRC cell lines were exposed to increasing concentrations of OSI-906 and proliferation was measured using the SRB assay as described previously (Pitts, T M, et al. Mol Cancer Ther 2009; 8(2):342-9). As depicted in FIG. 17 there was a wide range of sensitivity of the CRC cell lines to OSI-906, the majority of the cell lines failing to reach an IC50 up to 5 μmol/L, but a clear distinction could be made between the cell lines that were sensitive and the cell lines that were resistant.

NCI-H508 CRC cell line = conditions: Homo sapiens
Protocol: as §1, §2, §3, §4, §5

HCT15 CRC cell line = conditions: Homo sapiens
Protocol: as §1, §2, §3, §4, §5

Colo205 CRC cell line = conditions: Homo sapiens, COLO 205
Protocol: as §1, §2, §3, §4, §5

LS174T CRC cell line = conditions: Homo sapiens
Protocol: as §1, §2, §3, §4, §5

LS180 CRC cell line = conditions: Homo sapiens
Protocol: as §1, §2, §3, §4, §5

SW837 CRC cell line = conditions: Homo sapiens
Protocol: as §1, §2, §3, §4, §5

LS1034 CRC cell line = conditions: Homo sapiens
Protocol: as §1, §2, §3, §4, §5

HCT8 CRC cell line = conditions: Homo sapiens
Protocol: as §1, §2, §3, §4, §5

SW1417 CRC cell line = conditions: Homo sapiens
Protocol: as §1, §2, §3, §4, §5

SW1463 CRC cell line = conditions: Homo sapiens
Protocol: as §1, §2, §3, §4, §5

SW48 CRC cell line = conditions: Homo sapiens
Protocol: as §1, §2, §3, §4, §5

CaCo2 CRC cell line = conditions: Homo sapiens
Protocol: as §1, §2, §3, §4, §5

SW403 CRC cell line = conditions: Homo sapiens
Protocol: as §1, §2, §3, §4, §5

LS123 CRC cell line = conditions: Homo sapiens
Protocol: as §1, §2, §3, §4, §5

SW1116 CRC cell line = conditions: Homo sapiens
Protocol: as §1, §2, §3, §4, §5

T84 CRC cell line = conditions: Homo sapiens
Protocol: as §1, §2, §3, §4, §5

SW948 CRC cell line = conditions: Homo sapiens
Protocol: as §1, §2, §3, §4, §5

[1] = 72 hours, 0.05-5 μM, read-out: IC50, growth inhibition by PQIP (SRB)
[2] = 72 hours, read-out: IC50, proliferation, OSI-906 (SRB)

## CN1CCN([C@H]2C[C@@H](c3nc(-c4ccc5ccc(-c6ccccc6)nc5c4)c4c(N)nccn43)C2)CC1 [PQIP, cis-3-[3-(4-Methyl-piperazin-1-yl)-cyclobutyl]1-(2-phenyl-quinolin-7-yl)-imidazo[1,5-a]pyrazin-8-ylamine]
LoVo CRC cell line; [1]
  IC50: > 5 µM
NCI-H508 CRC cell line; [1]
  IC50: > 5 µM
HCT15 CRC cell line; HCT-15, 72 hours, 0.05-5 μM, read-out: IC50, growth inhibition by PQIP (SRB)
  IC50: > 5 µM
Colo205 CRC cell line; Colo205, 72 hours, 0.05-5 μM, read-out: IC50, growth inhibition by PQIP (SRB)
  IC50: < 0.5 µM
LS174T CRC cell line; [1]
  IC50: > 5 µM
LS180 CRC cell line; [1]
  IC50: > 5 µM
SW837 CRC cell line; [1]
  IC50: > 5 µM
LS1034 CRC cell line; LS-1034, 72 hours, 0.05-5 μM, read-out: IC50, growth inhibition by PQIP (SRB)
  IC50: > 5 µM
HCT8 CRC cell line; HCT-8, 72 hours, 0.05-5 μM, read-out: IC50, growth inhibition by PQIP (SRB)
  IC50: > 5 µM
SW1417 CRC cell line; [1]
  IC50: > 5 µM
SW1463 CRC cell line; [1]
  IC50: > 5 µM
SW48 CRC cell line; [1]
  IC50: > 5 µM
CaCo2 CRC cell line; Caco-2, 72 hours, 0.05-5 μM, read-out: IC50, growth inhibition by PQIP (SRB)
  IC50: > 5 µM
SW403 CRC cell line; SW-403, 72 hours, 0.05-5 μM, read-out: IC50, growth inhibition by PQIP (SRB)
  IC50: > 5 µM
LS123 CRC cell line; LS-123, 72 hours, 0.05-5 μM, read-out: IC50, growth inhibition by PQIP (SRB)
  IC50: > 5 µM
SW1116 CRC cell line; SW 1116, 72 hours, 0.05-5 μM, read-out: IC50, growth inhibition by PQIP (SRB)
  IC50: > 5 µM
T84 CRC cell line; [1]
  IC50: > 5 µM
SW948 CRC cell line; [1]
  IC50: > 5 µM

## C[C@]1(O)C[C@@H](c2nc(-c3ccc4ccc(-c5ccccc5)nc4c3)c3c(N)nccn32)C1 [OSI-906, cis-3-[8-amino-1-(2-phenyl-quinolin-7-yl)-imidazo[1,5-a]pyrazin-3-yl]-1-methyl-cyclobutanol]
LoVo CRC cell line; [2]
  IC50: > 5 µM
LoVo CRC cell line; read-out: S/I/R to OSI-906
  IC50: > 5 µM
NCI-H508 CRC cell line; [2]
  IC50: > 5 µM
NCI-H508 CRC cell line; read-out: S/I/R to OSI-906
  IC50: > 5 µM
HCT15 CRC cell line; HCT-15, 72 hours, read-out: IC50, proliferation, OSI-906 (SRB)
  IC50: > 5 µM
HCT15 CRC cell line; HCT-15, read-out: S/I/R to OSI-906
  IC50: > 5 µM
Colo205 CRC cell line; CoLo205, read-out: S/I/R to OSI-906
  IC50: ≤ 1.5 µM
Colo205 CRC cell line; Colo205, 72 hours, read-out: IC50, proliferation, OSI-906 (SRB)
  IC50: ≤ 1.5 µM
LS174T CRC cell line; [2]
  IC50: > 5 µM
LS174T CRC cell line; read-out: S/I/R to OSI-906
  IC50: > 5 µM
LS180 CRC cell line; [2]
  IC50: > 5 µM
LS180 CRC cell line; read-out: S/I/R to OSI-906
  IC50: > 5 µM
SW837 CRC cell line; [2]
  IC50: > 5 µM
SW837 CRC cell line; read-out: S/I/R to OSI-906
  IC50: > 5 µM
LS1034 CRC cell line; LS-1034, 72 hours, read-out: IC50, proliferation, OSI-906 (SRB)
  IC50: ≤ 1.5 µM
LS1034 CRC cell line; LS-1034, read-out: S/I/R to OSI-906
  IC50: ≤ 1.5 µM
HCT8 CRC cell line; HCT-8, 72 hours, read-out: IC50, proliferation, OSI-906 (SRB)
  IC50: > 5 µM
HCT8 CRC cell line; HCT-8, read-out: S/I/R to OSI-906
  IC50: > 5 µM
SW1417 CRC cell line; [2]
  IC50: > 5 µM
SW1417 CRC cell line; read-out: S/I/R to OSI-906
  IC50: > 5 µM
SW1463 CRC cell line; [2]
  IC50: > 5 µM
SW1463 CRC cell line; read-out: S/I/R to OSI-906
  IC50: > 5 µM
SW48 CRC cell line; [2]
  IC50: > 5 µM
SW48 CRC cell line; read-out: S/I/R to OSI-906
  IC50: > 5 µM
CaCo2 CRC cell line; Caco-2, 72 hours, read-out: IC50, proliferation, OSI-906 (SRB)
  IC50: ≤ 1.5 µM
CaCo2 CRC cell line; Caco-2, read-out: S/I/R to OSI-906
  IC50: ≤ 1.5 µM
SW403 CRC cell line; SW-403, 72 hours, read-out: IC50, proliferation, OSI-906 (SRB)
  IC50: > 5 µM
SW403 CRC cell line; SW-403, read-out: S/I/R to OSI-906
  IC50: > 5 µM
LS123 CRC cell line; LS-123, 72 hours, read-out: IC50, proliferation, OSI-906 (SRB)
  IC50: > 5 µM
LS123 CRC cell line; LS-123, read-out: S/I/R to OSI-906
  IC50: > 5 µM
SW1116 CRC cell line; SW 1116, 72 hours, read-out: IC50, proliferation, OSI-906 (SRB)
  IC50: > 5 µM
SW1116 CRC cell line; SW 1116, read-out: S/I/R to OSI-906
  IC50: > 5 µM
T84 CRC cell line; [2]
  IC50: > 5 µM
T84 CRC cell line; T-84, read-out: S/I/R to OSI-906
  IC50: > 5 µM
SW948 CRC cell line; [2]
  IC50: > 5 µM
SW948 CRC cell line; read-out: S/I/R to OSI-906
  IC50: > 5 µM
